In data set [1] the target is T1, Retinoic acid receptor: RAR (Homo sapiens, UniProt P10276).
T1 construct: using a fraction extracted from the nucleus of HL60; endogenous in cells; host or cells: HL60 cells, nucleus-extracted fraction (0.4 M KCl extract, 100,000 x g supernatant)
T1 sequence (P10276 1-462): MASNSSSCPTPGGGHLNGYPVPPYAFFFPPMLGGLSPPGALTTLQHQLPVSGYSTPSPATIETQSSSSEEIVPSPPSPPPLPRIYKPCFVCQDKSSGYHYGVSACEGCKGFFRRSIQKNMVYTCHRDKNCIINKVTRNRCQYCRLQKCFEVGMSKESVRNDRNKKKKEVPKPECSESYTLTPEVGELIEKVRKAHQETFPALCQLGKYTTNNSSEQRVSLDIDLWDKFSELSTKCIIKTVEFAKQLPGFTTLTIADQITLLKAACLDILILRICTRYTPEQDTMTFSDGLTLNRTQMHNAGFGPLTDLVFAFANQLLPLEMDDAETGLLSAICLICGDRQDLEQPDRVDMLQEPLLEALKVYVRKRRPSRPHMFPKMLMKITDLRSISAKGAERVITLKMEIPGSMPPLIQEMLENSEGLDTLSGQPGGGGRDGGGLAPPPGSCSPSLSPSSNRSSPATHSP
Put plainly: Receptor binding assay by using human promyelocytic leukemia cells HL60 (nucleus-extracted fraction, 3H-all-trans retinoic acid). As to conditions: 50% inhibition concentration of 3H-all-trans retinoic acid binding, 4° C. for 16 hours. Here is the method: Receptor binding assay by using human promyelocytic leukemia cells HL60
The nucleus-extracted fraction was prepared as described below.
In 15 ml of Solution A [5 mM sodium phosphate (pH 7.4), 10 mM monothioglycerol, 10% v/v glycerol, 1 mM phenylmethyl sulfonyl fluoride (PMSF), 10 μg/ml of aprotinin and 25 μg/ml of leupeptin], HL60 cells (5×10^8) were suspended. The resulting suspension was homogenized, followed by centrifugal separation to remove the supernatant. The precipitate so obtained was suspended in 15 ml of Solution B [10 mM tris-HCl (Tris-HCl) (pH 8.5), 10 mM monothioglycerol, 10% (v/v) glycerol, 1 mM PMSF, 10 μg/ml aprotinin, 25 μg/ml leupeptin and 0.4 M KC1]. After being allowed to stand at 4° C. for one hour, the resulting suspension was subjected to ultracentrifugation at 100,000 xg and 4° C. for one hour.
Receptor binding assay was carried out as follows:
The resulting mixture was allowed to stand at 4° C. for 16 hours. […] The count of the supernatant was determined by a scintillation counter.

The test system of a further data set is HL60 cells. Put plainly: Differentiation and induction effects on HL60 cells (CD11b positive cells, flow cytometry). The format is cell-based. To be noted: Homo sapiens, HL-60, 120 h; concentration at which the existing ratio of CD11b positive cells becomes 33%; cultivation for 5 days; read-out: Differentiation and induction effects of HL60 cells ED1/3. An excerpt:
Differentiation and Induction Effects on HL60 Cells
It is known that human-derived promyelocytic leukemia cell strains HL60 differentiate into the corresponding granulocytic cells in the presence of all-trans retinoic acid [Breitman, T. Selonick., S. and Colling, S. Proc. Natl. Acad. Sci., 77, 2936(1980)]. In general, cells after differentiation have come to express specific differentiated antigens on their surface. When the HL60 cells are differentiated into granulocytic cells, CD11b which is a differential antigen between granulocytes and monocytes is expressed on the surface of the cells [Fontana, J A., Reppuci, A. Durham, J P. and Mirand, D. Cancer Res. 46, 2469-2473(1986)]. Effects of the invention compound on the differentiation and induction into granulocyte cells were studied by making use of the above-described phenomenon.
HL60 cells were cultured and kept in RPMI 1640 (a medium formulated by Rosewell Park Memorial Institute) to which 10% bovine fetal serum, 1 mM sodium […], 50 μM β-mercaptoethanol, 100 IU/ml of penicillin and 100 μg/ml of streptomycin had been added.
On each well of a 24-well plate, a 1 ml portion of the suspension containing HL60 in an amount of 1×10^5 […] was seeded. The invention compound was then added thereto at varied concentrations, followed by cultivation for 5 days in a 5% CO2-air incubator. After cultivation, the cells of each well were collected in a test tube, to which an FITC-labeled monoclonal antibody against Cd11b, that is, a granulocyte-monocyte specific antigen was added. The cells were then immobilized with 0.2% paraformaldehyde. The existing ratio of CD11b positive cells in the vial HL60 cell group present in each well was determined using flow cytometry [Miller, L J., Schwarting, R. and Springer, T A. J. Immunol. 137, 2891-2900(1986)]. The existing ratios of CD11b positive cells-of-compounds which will be described below were increased according to the concentration. The concentration at which the existing ratio of the positive cells becomes 33% is defined as ED1/3.

The IC50 is the concentration that gives 50% inhibition. A lower IC50 goes with higher potency. Broadly, the melting point is the temperature, or range, at which the solid turns liquid.

In the case of `CC(C)c1ncc(-c2ccc(-c3ccc(C(=O)O)cc3)[nH]2)nc1C(C)C` [Compound of Ex. 42, 4-[2-[5-[2-(5,6-Diisopropylpyrazinyl)]pyrrolyl]]benzoic acid], the melting point is 246 °C (dec.). Also, the half-maximal inhibitory concentration (IC50) in data set [1] turned out to be 2 nM. Moreover, in the data set with HL60 cells, the EC (33% CD11b positive cells) turned out to be 0.00033 µM.
For `CC1(C)CCC(C)(C)c2nc(-c3cc(-c4ccc(C(=O)O)cc4)no3)cnc21` [Compound of Ex. 23, 4-[3-[5-[2-(5,6,7,8-Tetrahydro-5,5,8,8-tetramethylquinoxalyl)]isoxazolyl]]benzoic acid], the IC50 in data set [1] was found to be 11 nM. In the data set on HL60 cells, the EC (33% CD11b positive cells) came to 0.0006 µM.
In turn, `CC1(C)CCC(C)(C)c2cc(-c3ccc(-c4ccc(C(=O)O)cc4)[nH]3)ccc21` [1), reference compound] came in with a 50% inhibitory concentration (IC50) in data set [1] of 0.5 nM. The EC (33% CD11b positive cells) in the data set with HL60 cells worked out at 0.00094 µM.
The matching figures for `CC1(C)CCC(C)(C)c2nc(-c3cc(-c4ccc(C(=O)O)cc4)co3)cnc21` [Compound of Ex. 4, 4-[4-[2-[2-(5,6,7,8-Tetrahydro-5,5,8,8-tetramethylquinoxalyl)]furyl]]benzoic acid]: 7.2 nM and 0.0002 µM.
On to `CN1CCCC(C)(C)c2cc(-c3ccc(-c4ccc(C(=O)O)cc4)[nH]3)ccc21` [Compound of Ex. 85, 4-{2-{5-[7-(1,5,5-Trimethyl-2,3,4,5-tetrahydro-1H-benzazepinyl)]pyrrolyl}}benzoic acid], for which the IC50 in data set [1] is under 0.5 nM. Further, the EC (33% CD11b positive cells) with HL60 cells was 0.001 µM.
For `CC1(C)CC(C)(C)c2nc(-c3ccc(-c4ccc(C(=O)O)cc4)[nH]3)cnc21` [Compound of Ex. 43, 4-[2-[5-[2-(5,5,7,7-Tetramethylcyclopenta[b]pyrazinyl)]-pyrrolyl]]benzoic acid], the melting point is 269 °C (dec.). In addition, in data set [1], the IC50 worked out at 36 nM. In addition, the EC (33% CD11b positive cells) with HL60 cells amounted to 0.00036 µM.
In data set [1], `CC1(C)CCC(C)(C)c2nc(-c3ccc(-c4ccc(C(=O)O)cc4)[nH]3)cnc21` [Compound of Ex. 6, 4-[2-[5-[2-(5,6,7,8-Tetrahydro-5,5,8,8-tetramethylquinoxalyl)]pyrrolyl]]benzoic acid] yielded an IC50 of 1.6 nM. Moreover, the EC (33% CD11b positive cells) with HL60 cells amounted to 5.6e-05 µM.

For the origin of these results see patent US6884808B2, “Heterocycle-containing carboxylic acid derivative and drug containing the same” (Eisai Co. Ltd., priority 1995, dated 2005).
